# In PMC6444592, “Citrullination of HP1γ chromodomain affects association with chromatin” (Epigenetics & Chromatin, 2019):
# System: mESCs
# Assay: live-cell single-particle tracking, 13.5 ms, jump distance analysis
# Type: cell-based, mouse
# Settings: for diffusion rate, effect of LIF withdrawal: −LIF 72 h versus +LIF
# Experimental: Parental E14 mouse embryonic stem cell (mESC) line was profiled by transcriptome analysis, qPCR and potency assays and was routinely tested for mycoplasma contamination and tested negative. Cells were cultured in DMEM (Gibco) supplemented with 15% standard FCS (Gibco), 0.1 mM non-essential amino acids (Gibco), 1% penicillin/streptomycin, 2 mM L-glutamine (Gibco), 1 mM sodium pyruvate (Gibco), 0.1 mM β-mercaptoethanol (Life Technologies) and 10^6 units/l mLIF (ESGRO, Millipore). E14 cells were stored in incubators at 37 °C in 7.5% CO2 (100% humidity) and maintained in 0.1% gelatin coated 10-cm culture dishes with 1:6 passaging every 2 days. Media was changed on a daily basis. E14 ESCs expressing mouse mEos3.2–HaloTag-HP1 fusion proteins were generated by transfecting appropriate pSB7 plasmids into E14 cells using Lipofectamine 2000 transfection reagent (Invitrogen), followed by selection in 600 µg/ml geneticin (Life Technologies). After 2 weeks of geneticin selection, cells were sorted using a Sony SH800S cell sorter for the expression of mEos3.2. Differentiation of ESCs was induced by LIF withdrawal. ESCs cultured in complete ES cell media (+ LIF) were trypsinised and washed twice in 1x PBS to remove residual LIF, seeded into ES cell media without LIF and incubated for 24, 48 or 72 h.
# An IX73 Olympus inverted microscope was used with circularly polarised laser beams aligned and focused at the back aperture of an Olympus 1.40 NA 100 × oil objective (Universal Plan Super Apochromat, 100 × , NA 1.40, UPLSAPO100XO/1.4). Continuous wavelength diode laser light sources used include a 561-nm (Cobolt, Jive 200, 200 mW) and a 405-nm laser (Stradus, Toptica, 405–100, 100 mW). Oblique angle illumination was achieved by aligning the laser off axis such that the emergent beam at the sample interface was near-collimated and incident at an angle slightly less than the critical angle θc ~ 67° for a glass/water interface. This generated a ~ 50 μm diameter excitation footprint. The power of the collimated beams at the back aperture of the microscope was 10 kW/cm^2 and 10–100 W/cm^2 for the 561-nm and 405-nm laser beams, respectively. The lasers were reflected by dichroic mirrors (Semrock, Di01-R405/488/561/635). The fluorescence emission was collected through the same objective and then further filtered using a combination of long-pass and band-pass filters (BLP01-561R and FF01-587/35 for 561 nm excitation). The emission signal was projected onto an EMCCD (Photometrics, Evolve 512 Delta) with an electron multiplication gain of 250 ADU/photon operating in a frame transfer mode.
# mESCs expressing mEos3.2–HaloTag-tagged HP1γ were passaged 2 days before imaging onto 35-mm glass bottom dishes No 1.0 (MatTek Corporation P35G-1.0-14-C Case) in phenol red-free serum and LIF conditions, if not stated otherwise. Just before single-particle tracking (SPT) imaging experiments, cells were labelled with 0.5 nM HaloTag–JF549 ligand for at least 15 min, followed by two washes in PBS and a 30-min incubation at 37 °C in media, before imaging the cells in fresh phenol red-free serum and LIF conditions. Cells were under-labelled to prevent overlap of fluorophores during SPT. Using 561 nm excitation, fluorescence images were collected as movies of 10,000 frames at 13.5 ms or 1000 to 5000 frames at 500 ms exposure. For live-cell tracking, data were collected for three biological replicates on separate dishes and the average values compared.
# Live-cell 13.5-ms single-molecule traces were analysed using software that detects single-molecule trajectories from SPT movies. Briefly, the code detected puncta positions in each image frame using a brightness-weighted centroid after applying a band-pass filter to remove low-frequency background and high-frequency noise from the image data. To track the HP1 single molecules, only fluorescent puncta smaller than 3 pixels and with a signal to noise greater than 8 were analysed. […]
substance,measurement,setting,value
HP1γR38/9A: HP1γ with alanine substitutions at amino acids 38 and 39 to mimic citrullination,"Diffusion coefficient, Bound","+LIF, 13.5 ms, replicate i",0.090 µm2s-1
same,"Diffusion coefficient, Diffusing","+LIF, 13.5 ms, replicate i",0.746 µm2s-1
same,"Percentage, Bound","+LIF, 13.5 ms, replicate i",38.9%
same,"Percentage, Diffusing","+LIF, 13.5 ms, replicate i",61.1%
same,"Diffusion coefficient, Bound","+LIF, 13.5 ms, replicate ii",0.100 µm2s-1
same,"Diffusion coefficient, Diffusing","+LIF, 13.5 ms, replicate ii",0.761 µm2s-1
same,"Percentage, Bound","+LIF, 13.5 ms, replicate ii",29.6%
same,"Percentage, Diffusing","+LIF, 13.5 ms, replicate ii",70.4%
same,"Diffusion coefficient, Bound","+LIF, 13.5 ms, replicate iii",0.100 µm2s-1
same,"Diffusion coefficient, Diffusing","+LIF, 13.5 ms, replicate iii",0.706 µm2s-1
same,"Percentage, Bound","+LIF, 13.5 ms, replicate iii",34.1%
same,"Percentage, Diffusing","+LIF, 13.5 ms, replicate iii",65.9%
same,"Diffusion coefficient, Bound","+LIF, 13.5 ms, replicate iv",0.100 µm2s-1
same,"Diffusion coefficient, Diffusing","+LIF, 13.5 ms, replicate iv",1.012 µm2s-1
same,"Percentage, Bound","+LIF, 13.5 ms, replicate iv",21.5%
same,"Percentage, Diffusing","+LIF, 13.5 ms, replicate iv",78.5%
same,"Diffusion coefficient, Bound","+LIF, 13.5 ms, replicate v",0.100 µm2s-1
same,"Diffusion coefficient, Diffusing","+LIF, 13.5 ms, replicate v",1.094 µm2s-1
same,"Percentage, Bound","+LIF, 13.5 ms, replicate v",13.1%
same,"Percentage, Diffusing","+LIF, 13.5 ms, replicate v",86.9%
same,"Diffusion coefficient, Bound","+LIF, 13.5 ms, replicate vi",0.100 µm2s-1
same,"Diffusion coefficient, Diffusing","+LIF, 13.5 ms, replicate vi",1.108 µm2s-1
same,"Percentage, Bound","+LIF, 13.5 ms, replicate vi",37.1%
same,"Percentage, Diffusing","+LIF, 13.5 ms, replicate vi",62.9%
same,"percentages of molecules in diffusing and bound fractions, significance across conditions","WT and R38/9A, +/− LIF, p values > 0.967",ns.
same,"diffusion coefficients, significance across conditions","WT and R38/9A, +/− LIF, p values > 0.999",no significant differences across conditions
same,"diffusion rate, effect of LIF withdrawal",13.5 ms,no significant effect
same,"Diffusion coefficient, Bound","−LIF, 13.5 ms, replicate i",0.075 µm2s-1
same,"Diffusion coefficient, Diffusing","−LIF, 13.5 ms, replicate i",0.609 µm2s-1
same,"Percentage, Bound","−LIF, 13.5 ms, replicate i",44.5%
same,"Percentage, Diffusing","−LIF, 13.5 ms, replicate i",55.5%
same,"Diffusion coefficient, Bound","−LIF, 13.5 ms, replicate ii",0.100 µm2s-1
same,"Diffusion coefficient, Diffusing","−LIF, 13.5 ms, replicate ii",0.697 µm2s-1
same,"Percentage, Bound","−LIF, 13.5 ms, replicate ii",37.2%
same,"Percentage, Diffusing","−LIF, 13.5 ms, replicate ii",62.8%
same,"Diffusion coefficient, Bound","−LIF, 13.5 ms, replicate iii",0.100 µm2s-1
same,"Diffusion coefficient, Diffusing","−LIF, 13.5 ms, replicate iii",0.913 µm2s-1
same,"Percentage, Bound","−LIF, 13.5 ms, replicate iii",32.9%
same,"Percentage, Diffusing","−LIF, 13.5 ms, replicate iii",67.1%
same,"Diffusion coefficient, Bound","−LIF, 13.5 ms, replicate iv",0.100 µm2s-1
same,"Diffusion coefficient, Diffusing","−LIF, 13.5 ms, replicate iv",0.659 µm2s-1
same,"Percentage, Bound","−LIF, 13.5 ms, replicate iv",34.6%
same,"Percentage, Diffusing","−LIF, 13.5 ms, replicate iv",65.4%
same,"Diffusion coefficient, Bound","−LIF, 13.5 ms, replicate ix",0.100 µm2s-1
same,"Diffusion coefficient, Diffusing","−LIF, 13.5 ms, replicate ix",1.031 µm2s-1
same,"Percentage, Bound","−LIF, 13.5 ms, replicate ix",28.9%
same,"Percentage, Diffusing","−LIF, 13.5 ms, replicate ix",71.1%
same,"Diffusion coefficient, Bound","−LIF, 13.5 ms, replicate v",0.100 µm2s-1
same,"Diffusion coefficient, Diffusing","−LIF, 13.5 ms, replicate v",0.710 µm2s-1
same,"Percentage, Bound","−LIF, 13.5 ms, replicate v",39.6%
same,"Percentage, Diffusing","−LIF, 13.5 ms, replicate v",60.4%
same,"Diffusion coefficient, Bound","−LIF, 13.5 ms, replicate vi",0.100 µm2s-1
same,"Diffusion coefficient, Diffusing","−LIF, 13.5 ms, replicate vi",0.582 µm2s-1
same,"Percentage, Bound","−LIF, 13.5 ms, replicate vi",38.6%
same,"Percentage, Diffusing","−LIF, 13.5 ms, replicate vi",61.4%
same,"Diffusion coefficient, Bound","−LIF, 13.5 ms, replicate vii",0.100 µm2s-1
same,"Diffusion coefficient, Diffusing","−LIF, 13.5 ms, replicate vii",0.774 µm2s-1
same,"Percentage, Bound","−LIF, 13.5 ms, replicate vii",36.9%
same,"Percentage, Diffusing","−LIF, 13.5 ms, replicate vii",63.1%
same,"Diffusion coefficient, Bound","−LIF, 13.5 ms, replicate viii",0.100 µm2s-1
same,"Diffusion coefficient, Diffusing","−LIF, 13.5 ms, replicate viii",0.812 µm2s-1
same,"Percentage, Bound","−LIF, 13.5 ms, replicate viii",33.6%
same,"Percentage, Diffusing","−LIF, 13.5 ms, replicate viii",66.4%
"HP1γWT: full-length mouse HP1γ wild type, as GST or mEos3.2–HaloTag fusion protein","Diffusion coefficient, Bound","+LIF, 13.5 ms, replicate i",0.100 µm2s-1
same,"Diffusion coefficient, Diffusing","+LIF, 13.5 ms, replicate i",0.780 µm2s-1
same,"Percentage, Bound","+LIF, 13.5 ms, replicate i",36.7%
same,"Percentage, Diffusing","+LIF, 13.5 ms, replicate i",63.3%
same,"Diffusion coefficient, Bound","+LIF, 13.5 ms, replicate ii",0.100 µm2s-1
same,"Diffusion coefficient, Diffusing","+LIF, 13.5 ms, replicate ii",0.812 µm2s-1
same,"Percentage, Bound","+LIF, 13.5 ms, replicate ii",30%
same,"Percentage, Diffusing","+LIF, 13.5 ms, replicate ii",70%
same,"Diffusion coefficient, Bound","+LIF, 13.5 ms, replicate iii",0.100 µm2s-1
same,"Diffusion coefficient, Diffusing","+LIF, 13.5 ms, replicate iii",0.784 µm2s-1
same,"Percentage, Bound","+LIF, 13.5 ms, replicate iii",32.4%
same,"Percentage, Diffusing","+LIF, 13.5 ms, replicate iii",67.6%
same,"Diffusion coefficient, Bound","+LIF, 13.5 ms, replicate iv",0.097 µm2s-1
same,"Diffusion coefficient, Diffusing","+LIF, 13.5 ms, replicate iv",1.019 µm2s-1
same,"Percentage, Bound","+LIF, 13.5 ms, replicate iv",49%
same,"Percentage, Diffusing","+LIF, 13.5 ms, replicate iv",51%
same,"Diffusion coefficient, Bound","+LIF, 13.5 ms, replicate v",0.089 µm2s-1
same,"Diffusion coefficient, Diffusing","+LIF, 13.5 ms, replicate v",0.972 µm2s-1
same,"Percentage, Bound","+LIF, 13.5 ms, replicate v",38.8%
same,"Percentage, Diffusing","+LIF, 13.5 ms, replicate v",61.2%
same,"Percentage of molecules, diffusing","+LIF, mESCs, 13.5 ms, mean ± SD (n = 5–9)",63%
same,"diffusion rate, effect of LIF withdrawal",13.5 ms,no significant effect
same,"Diffusion coefficient, Bound","−LIF, 13.5 ms, replicate i",0.082 µm2s-1
same,"Diffusion coefficient, Diffusing","−LIF, 13.5 ms, replicate i",0.733 µm2s-1
same,"Percentage, Bound","−LIF, 13.5 ms, replicate i",51.4%
same,"Percentage, Diffusing","−LIF, 13.5 ms, replicate i",48.6%
same,"Diffusion coefficient, Bound","−LIF, 13.5 ms, replicate ii",0.092 µm2s-1
same,"Diffusion coefficient, Diffusing","−LIF, 13.5 ms, replicate ii",0.912 µm2s-1
same,"Percentage, Bound","−LIF, 13.5 ms, replicate ii",51%
same,"Percentage, Diffusing","−LIF, 13.5 ms, replicate ii",49%
same,"Diffusion coefficient, Bound","−LIF, 13.5 ms, replicate iii",0.100 µm2s-1
same,"Diffusion coefficient, Diffusing","−LIF, 13.5 ms, replicate iii",1.037 µm2s-1
same,"Percentage, Bound","−LIF, 13.5 ms, replicate iii",31.3%
same,"Percentage, Diffusing","−LIF, 13.5 ms, replicate iii",68.7%
same,"Diffusion coefficient, Bound","−LIF, 13.5 ms, replicate iv",0.100 µm2s-1
same,"Diffusion coefficient, Diffusing","−LIF, 13.5 ms, replicate iv",1.007 µm2s-1
same,"Percentage, Bound","−LIF, 13.5 ms, replicate iv",30.9%
same,"Percentage, Diffusing","−LIF, 13.5 ms, replicate iv",69.1%
same,"Diffusion coefficient, Bound","−LIF, 13.5 ms, replicate v",0.100 µm2s-1
same,"Diffusion coefficient, Diffusing","−LIF, 13.5 ms, replicate v",0.930 µm2s-1
same,"Percentage, Bound","−LIF, 13.5 ms, replicate v",27.9%
same,"Percentage, Diffusing","−LIF, 13.5 ms, replicate v",72.1%
